Measurements from US7683055B2, “Lanthionine-related compounds for the treatment of inflammatory diseases” (Oklahoma Medical Research Foundation, priority 2006, dated 2010).

What was measured:
NSC-34 cells [1] = assay: NSC-34 viability after H2O2 challenge (tetrazolium reduction); type: cell-based, mouse; conditions: H2O2 challenge 24 h
Experimental: NSC-34 cells were challenged directly with H2O2 for 24 h and the viability was assessed by tetrazolium reduction assay.
Furthermore, the invention contemplates that cytoprotection might be achieved by providing metabolic precursors to LK, rather than direct addition of the compound. For example, the inventor has studied the effects of NSC-34 cells treated with ethyl pyruvate in the presence or absence of lanthionine for 6 h prior to challenge with H2O2 and has assayed the viability of these cells 24 h later (FIG. 10). As reported in previous studies, ethyl pyruvate alone was protective against peroxide-induced cell death (Desagher et al., 1997; Nakamichi et al., 2005) with complete protection at ethyl pyruvate concentrations >1 mM (approximately 2-fold higher than ambient cell culture medium pyruvate concentrations; data not shown).
(R)-LKE1 protects NSC-34 motoneuron x neuroblastoma hybrid cells from hydrogen peroxide toxicity (FIG. 4). Cells were treated with the indicated concentration of (R)-LKE1. Thirty minutes later cells were challenged with the indicated concentration of hydrogen peroxide. Cell viability was assayed 24 hours later by tetrazolium reduction using a commercially available kit (Promega).
NSC-34 motor neuron-like cells, derived through the fusion of a neuroblastoma cell line with embryonic mouse motor neurons (Cashman et al., 1992), were grown in Dulbeco's modified essential medium (DMEM) plus 5% fetal bovine serum (FBS) and 1% penicillin plus 1% streptomycin (Pen/Strep). Recombinant TNFα and interferon gamma (IFNγ) were purchased from BD Biosciences (Pasadena Calif. USA). Lanthionine was purchased from Sequoia Research Products Ltd. (Pangbourne, UK). All other reagents were of the highest available commercial purity.
NSC-34 cells were exposed to 1 mM H2O2 with or without ethyl-pyruvate and/or lantionine (LK).

human PB monocytes = assay: intracellular TNFα in human peripheral blood monocytes by flow cytometry; type: cell-based
Excerpt: Identification of TNFα positive monocytes in peripheral blood by flow cytometry: PB monocytes expressing TNF in response to LPS or PG can be identified and counted using flow cytometry with fluorescent antibodies to stain TNFα. To identify the percentage of monocytes expressing TNFα, PB was stimulated with LPS or PG, stained for surface markers to distinguish monocytes from other leukocytes, and stained for intracellular TNFα to identify monocytes expressing TNFα. The percentage of monocytes positive for TNFα was compared among samples stimulated with LPS, PG, with and without pretreatment with (R)-LKE1, and non-stimulated samples.
The fluorescent antibodies used to identify monocytes surface markers were anti-human CD14-phycoerythrin (PE) and andtiCD16b-fluorescein isothyocyanate (FITC), based on staining intensity for each marker. Monocytes are positive for CD14 and negative for CD16b. This method of separating monocytes from neutrophils was confirmed by sorting cells based on CD14/CD16b intensity, preparing slides, staining with May-Grunwald Giemsa and confirming by morphology.
For analysis of CD14 positive, CD16b negative cells we used dot plots. We first excluded lymphocytes from the analysis by their forward scatter (FSC) and side scatter (SSC) properties, drawing a monocyte/neutrophil gate to exclude lymphocytes (not shown). We then identified CD14+, (y-axis) CD16b− (x-axis) cells by comparison with an unstained sample.
A third dye, PE-Cye7 was used for intracellular cytokine staining of TNFα. The TNFα positive monocytes were identified on a second dot plot of SSC vs. TNFα PE-Cye7 for monocytes only. Cells were counted as positive for TNFα expression if the intensity of PE-Cye7 was greater than in the non-stimulated control. The percent of TNFα positive monocytes was calculated using number positive/total number of monocytes.
PB, heparinized, was diluted 1:3 with DMEM. Diluted blood was placed in 1.0 ml aliquots into wells of a non tissue culture plate. PB was pre-incubated at 37° C. for one hour with LKE (1 mM) or the diluent DMSO (10 μl). […]

C6 glioma cells = assay: stimulated nitrite production in C6 glioma cells; type: cell-based
RAW 264.7 macrophages = assay: LPS-stimulated nitrite production in RAW 264.7 macrophages; type: cell-based; conditions: 24-48 h
Experimental: Primary astrocytes were cultured from neonatal R6/2 transgenic mouse pups (“Htt+”) which are the standard murine model for Huntington's disease (animals commercially obtained from Jackson Labs) or nontransgenic littermates. For RAW cell studies, RAW264.7 macrophages were obtained commercially from American Type Culture Collection. RAW 264.7 macrophages were grown in DMEM plus 10% FBS and 1% Pen/Strep. Cells were maintained in culture according to published methods. Cells were treated with +/−[…] bacterial lipopolysaccharide serotype 0127:B8 (Sigma Chemical)+/−various concentrations of (R)-LKE1 for 24-48 h. (R)-LKE1 was added 30 minutes prior to LPS challenge. Nitrite was measured in the cell culture medium using the Griess diazotization assay. Cells were lysed and Western blots performed for protein expression or in other experiments for ribonuclease protection assays.

NSC-34 cells [2] = assay: NSC-34 viability after glutamate and/or Ca2+ exposure; type: cell-based, mouse; conditions: 1 mM L-glutamate, 1 mM CaCl2 or both, four days
Experimental: NSC-34 motor neuron x neuroblastoma cells were treated with 1 mM L-glutamate, 1 mM CaCl2, or both for four days. (R)-LKE1 was added at t=0 and at t=48 hours, at the indicated concentrations. At the end of four days (t=96 hours) cell viability was assayed by measuring tetrazolium reduction rates using a commercially available kit (Promega).

CCOC(=O)[C@@H]1CSCC(C(=O)O)=N1 [(R)-LKE1]
protection from H2O2-induced cell death (NSC-34 cells [1]): protected NSC-34 cells from direct oxidative stress-induced cell death in a dose dependent fashion
percent monocytes staining positively for TNFα (human PB monocytes; 1 mM pre-incubation, PG 10 ug/ml): 0.76%
percent monocytes staining positively for TNFα (human PB monocytes; 1 mM pre-incubation, Ultra Pure LPS 1 μg/ml): 25.9%
percent monocytes staining positively for TNFα (human PB monocytes; 1 mM, no stimulus): 0.96%
suppression of nitrite production (C6 glioma cells; stimulated by TNFα+IFNγ): does not suppress nitrite production
suppression of nitrite production (C6 glioma cells; stimulated by TNFα+LPS): not to suppress nitrite production
inhibition of LPS-stimulated nitric oxide production (RAW 264.7 macrophages): inhibited LPS stimulated nitric oxide production
viability of cells exposed to glutamate and/or Ca2+ (NSC-34 cells [2]): increases the viability
